From PMC6630699, “Synthesis and Cytotoxicity Evaluation of DOTA-Conjugates of Ursolic Acid” (Molecules, 2019)
“Also recorded” adds a separate entry of the source.

Columns and labels:
[1] = tested on: HT29 (colon adenocarcinoma); test: SRB cytotoxicity assay, HT29; type: cell-based, human; conditions: for EC50: Homo sapiens, HT-29, SRB assay, 72 h of treatment; for Selectivity index SI HT29: SI = EC50 (NIH 3T3)/EC50 (HT29)
Description: (§1) Due to cytotoxicity evaluation, the prepared UA-DOTA conjugates were screened in rhodamine B assays employing a series of human tumor cell lines and non-malignant mouse fibroblasts (NIH 3T3).
(§2) The cell lines used are human cancer cell lines: A2780 (ovarian carcinoma), HT29 (colon adenocarcinoma), MCF-7 (breast adenocarcinoma), A375 (melanoma), FaDu (pharynx squamous cell carcinoma) and non-malignant mouse fibroblasts NIH 3T3; all cell lines were obtained from the Department of Oncology (Martin-Luther-University Halle-Wittenberg). Cultures were maintained as monolayers in RPMI 1640 medium with L-glutamine (Capricorn Scientific GmbH, Ebsdorfergrund, Germany) supplemented with 10% heat inactivated fetal bovine serum (Sigma-Aldrich Chemie GmbH, Steinheim, Germany) and penicillin/streptomycin (Capricorn Scientific GmbH, Ebsdorfergrund, Germany) at 37 °C in a humidified atmosphere with 5% CO2.
(§3) The cytotoxicity of the compounds was evaluated using the sulforhodamine-B (Kiton-Red S, ABCR) micro culture colorimetric assay. Cells were seeded into 96-well plates on day 0 at appropriate cell densities to prevent confluence of the cells during the period of experiment. After 24 h, the cells were treated with six different concentrations (1, 3, 7, 12, 20, and 30 µM) minimum. The final concentration of DMSO/DMF never exceeded 0.5%, which was non-toxic to the cells. After a 72-h treatment, the supernatant medium from the 96-well plates was discarded, the cells were fixed with 10% trichloroacetic acid (TCA) and allowed to rest at 4 °C. After 24 h fixation, the cells were washed in a strip washer and dyed with SRB solution (100 µL, 0.4%, in 1% acetic acid) for about 20 min. After dying, the plates were washed four times with 1% acetic acid to remove the excess of the dye and allowed to air-dry overnight. Tris base solution (200 µL, 10 mM) was added to each well and absorbance was measured at λ = 570 nm using a 96 well plate reader (Tecan Spectra, Crailsheim, Germany). The EC50 values were averaged from three independent experiments performed each in triplicate calculated from semi logarithmic dose response curves applying a non-linear 4P Hills-slope equation (GraphPad Prism5; variables top and bottom were set to 100 and 0, respectively).

[2] = tested on: A2780 (ovarian carcinoma); test: SRB cytotoxicity assay, A2780; type: cell-based, human; conditions: for EC50: SRB assay, 72 h of treatment; for Selectivity index SI A2780: SI = EC50 (NIH 3T3)/EC50 (A2780)
Description: as §1, §2, §3

[3] = tested on: A375 cells; test: AO/PI dye exclusion test (fluorescence microscopy); type: cell-based, human
Description: Morphological characteristics of cell death were analyzed employing an AO/PI assay using human cancer cell line A375. Approx. 2 × 10^5 cells were seeded in cell culture flasks (25 cm^2), and the cells were allowed to grow up for 24 h. After removing of the used medium, the substance loaded fresh medium was reloaded (or a blank new medium as a control). After 24 h and 48 h, the content of the flask was collected and centrifuged (1200 rpm, 4 °C), the pellet was gently suspended in phosphate-buffered saline (PBS (w/Ca^2+ and Mg^2+), 1 mL) and centrifuged again. The PBS was removed, and the pellet gently suspended in PBS (150 µL) again. The analysis of the cells was performed using a fluorescence microscope after having mixed the cell suspension (10 µL) with a solution of AO/PI (5 µg/mL, 10 µL).

[4] = tested on: A375 cells; test: Cell cycle investigations (PI, flow cytometry); type: cell-based, human
Description: Approximately 2 × 10^5 cells (A375) were seeded in cell culture flasks (25 cm^2), and the cells were allowed to grow up for 24 h. After removing of the used medium, the substance loaded fresh medium was reloaded (or a blank fresh medium as a control). After 24 h or 48 h, respectively, only the adherent cells were harvested, centrifuged (1200 rpm, 4 °C), and washed twice with PBS ((w/w), 1 mL). The cells were counted and approximately 1 × 10^6 cells were fixed with ethanol (70%, 4 °C, 24 h). After centrifugation (4500 rpm, 4 °C) the cells were washed with PBS ((w/w), 1 mL) and centrifuged. The pellet was resuspended in 1 mL RNAse A containing PI buffer (100µL RNAse (100 mg/mL), 15 µL PI solution (1 mg/mL)) and after incubating for 30 min at room temperature in the dark, cells were analyzed using the Attune® FACS machine; collecting data from the BL-2A channel. Doublet cells were excluded from the measurements by plotting BL-2A against BL-2H. For each cell cycle distribution 20,000 events were collected in technical triplicates, each sample was measured in duplicates. Cell cycle distribution was calculated using ModFitLT™ (Verity Software House, Topsham, ME, USA).

[5] = tested on: MCF-7 (breast adenocarcinoma); test: SRB cytotoxicity assay, MCF-7; type: cell-based, human; conditions: for EC50: Homo sapiens, MCF7, SRB assay, 72 h of treatment; for Selectivity index SI MCF-7: SI = EC50 (NIH 3T3)/EC50 (MCF-7)
Description: as §1, §2, §3

[6] = tested on: FaDu (pharynx squamous cell carcinoma); test: SRB cytotoxicity assay, FaDu; type: cell-based, human; conditions: for EC50: Homo sapiens, FaDu, SRB assay, 72 h of treatment; for Selectivity index SI FaDu: SI = EC50 (NIH 3T3)/EC50 (FaDu)
Description: as §1, §2, §3

[7] = tested on: non-malignant mouse fibroblasts NIH 3T3; test: SRB cytotoxicity assay, NIH 3T3; type: cell-based; conditions: NIH3T3, 72 h of treatment
Description: as §1, §2, §3

[8] = tested on: A375 cells; test: Annexin V-FITC/PI assay (flow cytometry); type: cell-based, human
Description: Approximately 2 × 10^5 cells (A375) were seeded in cell culture flasks (25 cm^2), and the cells were allowed to grow up for 24 h. After removing of the used medium, the substance loaded fresh medium was reloaded (or a blank fresh medium as a control). After 24 h and 48 h, the cells were harvested, centrifuged (1200 rpm, 4 °C), and washed twice with PBS (w/Ca^2+ and Mg^2+, 1 mL). The cells were counted and approximately 1∙10^6 cells were washed with Annexin V binding buffer (BioLegend®, San Diego, USA) and treated with propidium iodide solution (3 µL, 1 mg/mL) and Annexin V-FITC (5 µL, BioLegend®, San Diego, CA, USA) for 15 min in the dark at room temperature. After adding Annexin V binding buffer (400 µL) the suspension was analyzed using Attune® FACS machine. After gating for living cells, the data from detectors BL-1A and BL-3A were collected (20,000 events) in technical triplicates. The assay was performed in duplicates; cell distribution was calculated using Attune® Software (ThermoFisher Scientific, Braunschweig, Germany).

[9] = tested on: A375 (melanoma); test: SRB cytotoxicity assay, A375; type: cell-based, human; conditions: for EC50: Homo sapiens, A-375, SRB assay, 72 h of treatment; for Selectivity index SI A375: SI = EC50 (NIH 3T3)/EC50 (A375)
Description: as §1, §2, §3

[10] = tested on: human tumor cell lines; test: SRB cytotoxicity assay, statements over the whole cell line panel; type: cell-based; conditions: summary over all tumor cell lines
Description: as §1, §2, §3

In the case of CC(=O)O[C@H]1CC[C@@]2(C)C(CC[C@]3(C)C2CC=C2C4[C@@H](C)[C@H](C)CC[C@]4(C(=O)N4CCN(C(=O)CN5CCN(CC(=O)OC(C)(C)C)CCN(CC(=O)OC(C)(C)C)CCN(CC(=O)OC(C)(C)C)CC5)CC4)CC[C@]23C)C1(C)C (stereo partly drawn) [compound 22, Tri-tert-butyl 2,2’,2’’-[10-[2-[4-(3β-acetyloxy-urs-12-en-28-oyl)piperazin-1-yl]-2-oxoethyl]-1,4,7,10-tetraazacyclododecane-1,4,7-triyl]triacetate], the EC50 [1] is reported as 5700 ± 500 nM, the “Selectivity index SI HT29” value [1] is reported as 0.81 and the EC50 ([2]; Homo sapiens, A2780, 72 h) is reported as 1700 nM. The “Selectivity index SI A2780” value [2] was 2.42, the EC50 [2] was 1900 ± 300 nM and the “fluorescence microscopic images versus control” value ([3]; A375, 3.0 µM, 24 h) was “no significant differences in comparison to the control”. The “cell morphology in fluorescence microscopic images” value ([3]; A375, 3.0 µM, 48 h) was “ruptures of the plasma membrane”, the “cell cycle distribution versus control” value ([4]; A375, 3.0 µM, 48 h) was “G1/G0, G2/M, and S phase were drastically reduced; also recorded: an increased population of cells with reduced DNA content has been observed in the subG1 region” and the EC50 [5] was 4400 ± 700 nM. For the same compound, the “Selectivity index SI MCF-7” value [5] was 1.05, the EC50 [6] was 3700 ± 600 nM and the “Selectivity index SI FaDu” value [6] was 1.24. For the same compound, the EC50 [7] was 4600 ± 1000 nM, the “density plots versus control” value ([8]; A375, 3.0 µM, 24 h) was “no significant differences in comparison to the control” and the “annexin V-FITC-positive cells” value ([8]; A375, 3.0 µM, 48 h) was 32.9%. The “apoptotic cells (R4)” value ([8]; A375, 3.0 µM, 48 h) was 17.4%, the “vital cells (R3)” value ([8]; A375, 3.0 µM, 48 h, control 86.0%) was 66.3% and the EC50 [9] was 1500 ± 400 nM. For the same compound, the “Selectivity index SI A375” value [9] was 3.07.

CC(=O)O[C@H]1CC[C@@]2(C)C(CC[C@]3(C)C2CC=C2C4[C@@H](C)[C@H](C)CC[C@]4(C(=O)NCCNC(=O)CN4CCN(CC(=O)OC(C)(C)C)CCN(CC(=O)OC(C)(C)C)CCN(CC(=O)OC(C)(C)C)CC4)CC[C@]23C)C1(C)C (stereo partly drawn) [compound 24, Tri-tert-butyl 2,2’,2’’-[10-[2-[2-(3β-acetyloxy-urs-12-en-28-oylamino)ethyl]amino-2-oxoethyl]-1,4,7,10-tetraazacyclododecane-1,4,7-triyl]triacetate] was tested, and the EC50 [1] was 2300 ± 300 nM, the “Selectivity index SI HT29” value [1] was 0.61 and the EC50 ([2]; Homo sapiens, A2780, 72 h) was 1700 ± 100 nM. For the same compound, the “Selectivity index SI A2780” value [2] was 0.82, the “cell morphology in fluorescence microscopic images” value ([3]; A375, 4.0 µM, 24 h) was “vital cells (green staining) with some of them having ruptured cell membranes” and the “cell cycle distribution versus control” value ([4]; A375, 4.0 µM, 24 h) was “decreased number of cells in G1/G0, G2/M, as well as in S phase; also recorded: a large population of cells has been shifted into the subG1 region”. The EC50 [5] was 1800 ± 100 nM, the “Selectivity index SI MCF-7” value [5] was 0.78 and the EC50 [6] was 2000 ± 200 nM. For the same compound, the “Selectivity index SI FaDu” value [6] was 0.70, the EC50 [10] was under 2500 nM and the EC50 [7] was 1400 ± 100 nM. The “annexin V-FITC-positive cells” value ([8]; A375, 4.0 µM, 24 h) was 63%, the “apoptotic cells (R4)” value ([8]; A375, 4.0 µM, 24 h) was 51.9% and the “vital cells (R3)” value ([8]; A375, 4.0 µM, 24 h, control 86.1%) was 36.7%. The EC50 [9] was 2000 ± 100 nM and the “Selectivity index SI A375” value [9] was 0.70.
